Results from ChEMBL document CHEMBL1134266, “Design and pharmacology of quinuclidine derivatives as M2-selective muscarinic receptor ligands” (Bioorg Med Chem Lett, 2001).

Tests used:
Format in all cases: cell-based
[1] = target: T1, Muscarinic acetylcholine receptor M1 (Homo sapiens, UniProt P11229); test: Affinity for Muscarinic acetylcholine receptor M1 expressed in CHO cells by [3H]NMS displacement.
T1 sequence (P11229 whole entry): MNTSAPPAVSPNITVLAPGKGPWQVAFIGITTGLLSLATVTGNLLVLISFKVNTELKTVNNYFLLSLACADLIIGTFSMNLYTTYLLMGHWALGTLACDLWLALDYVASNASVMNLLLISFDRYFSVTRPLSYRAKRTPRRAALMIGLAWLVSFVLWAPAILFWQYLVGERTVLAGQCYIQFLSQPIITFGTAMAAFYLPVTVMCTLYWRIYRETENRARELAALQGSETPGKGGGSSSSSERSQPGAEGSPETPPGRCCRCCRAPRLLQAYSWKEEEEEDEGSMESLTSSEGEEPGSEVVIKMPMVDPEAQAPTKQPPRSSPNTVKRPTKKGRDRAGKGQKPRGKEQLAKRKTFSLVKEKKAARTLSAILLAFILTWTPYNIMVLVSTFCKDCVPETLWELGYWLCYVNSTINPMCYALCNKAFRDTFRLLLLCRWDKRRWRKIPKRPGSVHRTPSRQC

[2] = target: T2, Muscarinic acetylcholine receptor M4 (Homo sapiens, UniProt P08173); test: Affinity for Muscarinic acetylcholine receptor M4 expressed in CHO cells by [3H]NMS displacement.
T2 sequence (P08173 whole entry): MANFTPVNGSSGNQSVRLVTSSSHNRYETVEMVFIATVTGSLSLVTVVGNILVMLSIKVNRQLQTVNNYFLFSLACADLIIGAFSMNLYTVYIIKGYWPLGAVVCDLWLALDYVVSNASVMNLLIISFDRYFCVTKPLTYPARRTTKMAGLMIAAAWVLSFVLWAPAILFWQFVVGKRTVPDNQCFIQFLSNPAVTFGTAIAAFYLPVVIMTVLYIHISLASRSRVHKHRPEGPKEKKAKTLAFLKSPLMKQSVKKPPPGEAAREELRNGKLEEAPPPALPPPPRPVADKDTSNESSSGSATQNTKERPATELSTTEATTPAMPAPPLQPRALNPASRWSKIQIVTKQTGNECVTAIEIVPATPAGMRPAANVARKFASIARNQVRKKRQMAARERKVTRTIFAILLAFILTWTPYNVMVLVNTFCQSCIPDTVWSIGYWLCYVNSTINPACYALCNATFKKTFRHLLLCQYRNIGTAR

[3] = target: T3, Muscarinic acetylcholine receptor M5 (Homo sapiens, UniProt P08912); test: Affinity for Muscarinic acetylcholine receptor M5 expressed in CHO cells by [3H]NMS displacement.
T3 sequence (P08912 whole entry): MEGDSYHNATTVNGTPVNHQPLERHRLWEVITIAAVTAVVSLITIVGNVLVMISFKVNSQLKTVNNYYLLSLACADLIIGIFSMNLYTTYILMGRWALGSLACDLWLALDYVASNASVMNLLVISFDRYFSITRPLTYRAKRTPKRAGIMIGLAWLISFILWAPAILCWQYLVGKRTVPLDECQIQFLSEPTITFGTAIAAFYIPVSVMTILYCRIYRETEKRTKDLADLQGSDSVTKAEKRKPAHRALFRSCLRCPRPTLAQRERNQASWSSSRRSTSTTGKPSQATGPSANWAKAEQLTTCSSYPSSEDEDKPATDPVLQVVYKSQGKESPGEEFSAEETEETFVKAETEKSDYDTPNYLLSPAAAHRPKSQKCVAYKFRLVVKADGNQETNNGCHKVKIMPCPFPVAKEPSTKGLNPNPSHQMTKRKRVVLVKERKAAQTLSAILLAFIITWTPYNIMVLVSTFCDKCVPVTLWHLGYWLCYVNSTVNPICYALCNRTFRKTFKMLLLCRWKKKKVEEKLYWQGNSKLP

[4] = target: Muscarinic acetylcholine receptor M3 (Homo sapiens, UniProt P20309); test: Affinity for Muscarinic acetylcholine receptor M3 expressed in CHO cells by [3H]-NMS displacement.
Chain of Muscarinic acetylcholine receptor M3 (P20309 whole entry): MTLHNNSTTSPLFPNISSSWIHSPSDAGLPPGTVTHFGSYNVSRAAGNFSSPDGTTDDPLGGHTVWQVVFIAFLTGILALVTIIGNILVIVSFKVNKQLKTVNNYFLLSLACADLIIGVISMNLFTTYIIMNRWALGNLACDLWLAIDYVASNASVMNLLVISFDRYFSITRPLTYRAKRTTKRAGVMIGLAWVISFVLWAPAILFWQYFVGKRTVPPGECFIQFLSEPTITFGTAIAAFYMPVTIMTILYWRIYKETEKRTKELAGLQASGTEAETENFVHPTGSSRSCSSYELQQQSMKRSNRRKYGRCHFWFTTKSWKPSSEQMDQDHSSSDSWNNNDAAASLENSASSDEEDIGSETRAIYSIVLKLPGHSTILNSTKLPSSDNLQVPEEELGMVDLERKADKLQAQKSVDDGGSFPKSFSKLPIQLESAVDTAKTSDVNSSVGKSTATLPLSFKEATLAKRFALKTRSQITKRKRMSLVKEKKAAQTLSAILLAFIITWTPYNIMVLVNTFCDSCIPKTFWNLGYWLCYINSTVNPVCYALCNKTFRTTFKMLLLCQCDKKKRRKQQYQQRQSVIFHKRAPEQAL

[5] = target: T4, Muscarinic acetylcholine receptor M2 (Homo sapiens, UniProt P08172); test: Affinity for Muscarinic acetylcholine receptor M2 expressed in CHO cells by [3H]NMS displacement.
T4 sequence (P08172 whole entry): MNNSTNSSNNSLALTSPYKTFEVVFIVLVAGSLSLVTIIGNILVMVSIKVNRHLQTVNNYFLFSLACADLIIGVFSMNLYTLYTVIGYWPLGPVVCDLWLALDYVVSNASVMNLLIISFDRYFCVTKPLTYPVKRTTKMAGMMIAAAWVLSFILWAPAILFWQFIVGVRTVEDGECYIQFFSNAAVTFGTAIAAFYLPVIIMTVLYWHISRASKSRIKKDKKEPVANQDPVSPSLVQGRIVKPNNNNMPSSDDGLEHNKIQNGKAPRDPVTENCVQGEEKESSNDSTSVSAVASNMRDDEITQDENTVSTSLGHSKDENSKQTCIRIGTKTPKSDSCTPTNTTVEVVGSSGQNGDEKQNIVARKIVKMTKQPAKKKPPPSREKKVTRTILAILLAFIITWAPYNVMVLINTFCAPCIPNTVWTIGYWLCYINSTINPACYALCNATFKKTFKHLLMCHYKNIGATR

Compound | Ki [1] [µM] | Ki [2] [µM] | Ki [3] [µM] | Ki [4] [µM] | Ki [5] [µM]
CN(C)CCOC(=O)C1=C/C(=C\c2ccccn2)c2ccccc21 | 7.08 | 12.3 | 17.8 | 14.1 | 12
CN(C)CCN(C)C(=O)C1=C/C(=C\c2cccnc2)c2ccccc21 | 49 | 55 | 53.7 | 72.4 | 14.1
CN(C)CCC1=C/C(=C\c2cccnc2)c2ccccc21 | 18.6 | 22.4 | 26.9 | 27.5 | 15.1
CN(C)CCC1=C/C(=C\c2ccccn2)c2ccccc21 | 9.55 | 12 | 19.1 | 21.4 | 12.6
CN(C)CCNC(=O)C1=C/C(=C\c2ccccn2)c2ccccc21 | 26.9 | 33.9 | 55 | 61.7 | 41.7
CC(C1=C(CCN(C)C)Cc2ccccc21)c1ccccn1 (stereo not drawn) | 0.263 | 0.407 | 0.794 | 0.191 | 0.0447
CN(C)CCOC(=O)C1=C/C(=C\c2ccncc2)c2ccccc21 | 12 | 14.8 | 26.9 | 15.1 | 10.5
CN(C)CCN(C)C(=O)C1=C/C(=C\c2ccccn2)c2ccccc21 | 21.9 | 46.8 | 52.5 | 63.1 | 9.12
CN(C)CCNC(=O)C1=C/C(=C\c2cccnc2)c2ccccc21 | 28.2 | 21.4 | 66.1 | 40.7 | 29.5
CN(C)CCOC(=O)C1=C/C(=C\c2cccnc2)c2ccccc21 | 11.5 | 12.6 | 30.2 | 10 | 7.41
CN(C)CCNC(=O)C1=C/C(=C\c2ccncc2)c2ccccc21 | 24 | 24.5 | 53.7 | 45.7 | 15.8
CN1CCN(C(=O)C2=C/C(=C\c3ccncc3)c3ccccc32)CC1 | 29.5 | 89.1 | 55 | 97.7 | 38.9
CC1OC(=O)[C@H]2C[C@H]3CCCC[C@@H]3[C@@H](/C=C/C3CCCC(C)N3C)[C@@H]12 (single isomer, unassigned) [HIMBACINE] | 0.107 | – | 0.49 | – | 0.01
